Laboratory results: patent US9174979B2, “Phenanthroindolizidine compound and NFκB inhibitor containing same as active ingredient” (KABUSHIKI KAISHA YAKULT HONSHA, priority 2008, dated 2015)
Values after ≈ are worked out from the molar mass of the structure shown. Read-outs that look alike come from different tables or passages of the source.

What was measured:
NFκB = NFκB luciferase reporter assay in SW480/NRE-Luc cells stimulated with TNFα; type: cell-based, human; conditions: for IC50: Homo sapiens
From the text: (§1) The action of the phenanthroindolizidine alkaloid compound of the present invention on the NFκB activity was studied in a luciferase assay. Human colon cancer SW480 cells were transfected with pNFκB-Luc Plasmid (Stratagene), which is a reporter vector in which a five-time tandem repeat of the NFκB responsive element (NRE) is integrated into the upstream of the luciferase gene, using Lipofectamine 2000 (Invitrogen Corporation) in accordance with the attached operating procedure. Subsequently, the cells were cultured in an RPMI1640 medium containing 10% FBS, 100 U/mL penicillin, 100 μg/mL streptomycin, and 0.5 mg/mL G418 to produce SW480 cells having the luciferase gene, the expression of which is regulated by NRE, stably introduced therein (SW480/NRE-Luc cells). Likewise, SW480 cells were transfected with pGL3-Control Vector (Promega Corporation), which is a reporter vector in which the SV40 promoter is integrated into the upstream of the luciferase gene, to produce SW480 cells having the luciferase gene, the expression of which is regulated by the SV40 promoter, stably introduced therein (SW480/SV40-Luc cells). The SW480/NRE-Luc cells or the SW480/SV40-Luc cells were suspended in an RPMI1640 medium containing 10% FBS, 100 U/mL penicillin, and 100 μg/mL streptomycin (10% FBS/RPMI1640), and then seeded in a 96-well microplate, followed by culturing under conditions of 5% CO2 and at 37° C. (5000 cells/well). After an overnight culture, the compound of the present invention was added, followed by culturing for one hour. Further, 50 ng/mL TNFα (Sigma-Aldrich Corporation) was added, followed by culturing for four hours. Subsequently, a Steady-Glo Luciferase Assay reagent (Promega Corporation) was added, and the luminescent intensity was detected by SpectraMax M5e (Molecular Devices, Inc.) to measure the intracellular luciferase activity. It is to be noted that the action of the compound of the present invention on the NFκB activity or the SV40 promoter activity was shown as IC50 values (the concentration of a test compound needed for 50% inhibition of the induction of the luciferase expression).

SV40 promoter = SV40 promoter luciferase reporter assay in SW480/SV40-Luc cells; type: cell-based, human; conditions: for IC50: Homo sapiens
From the text: as §1

[1] = system: human colon cancer SW480 cells; assay: Inhibitory action on the proliferation of SW480 cells; type: cell-based; conditions: 48 hours culture, TetraColor ONE; for IC50: Homo sapiens, SW480
Experimental: (§2) The action of the phenanthroindolizidine alkaloid compound of the present invention on the proliferation of human colon cancer SW480 cells, HT-29 cells, and human non-small cell lung cancer A549 cells was studied. The SW480 cells were suspended in a 10% FBS/RPMI1640 and then seeded in a 96-well microplate, followed by culturing in 5% CO2 at 37° C. (2000 cells/well). The A549 cells and the HT-29 cells were each suspended in a DMEM medium containing 10% FBS, 100 U/mL penicillin, and 100 μg/mL streptomycin (10% FBS/DMEM) and a DMEM F-12 HAM medium containing 10% FBS, 100 U/mL penicillin, and 100 μg/mL streptomycin (10% FBS/DMEM F12 HAM), and then seeded in 96-well microplates, followed by culturing in 5% CO2 at 37° C. (1000 cells/well). After an overnight culture, the compound of the present invention was added, followed by further culturing for 48 hours (SW480 cells) and 96 hours (A549 cells and HT-29 cells). After culturing, the number of viable cells was counted using TetraColor ONE (Seikagaku Corporation) in accordance with the attached operating procedure. The results were expressed as the concentration of a test compound needed for 50% inhibition of the proliferation of the cells (IC50).

[2] = system: human colon cancer HT-29 cells; assay: Inhibitory action on the proliferation of HT-29 cells; type: cell-based; conditions: 96 hours culture, TetraColor ONE; for IC50: Homo sapiens, HT-29
Experimental: as §2

[3] = system: human non-small cell lung cancer A549 cells; assay: Inhibitory action on the proliferation of A549 cells; type: cell-based; conditions: 96 hours culture, TetraColor ONE; for IC50: Homo sapiens, A549
Experimental: as §2

mice = assay: Animal toxicity test in mice transplanted with Meth A cells; type: in vivo, mouse; conditions: intravenous on days 1, 5, 9, observed for three weeks
Experimental: Also, the toxicity of known phenanthroindolizidine alkaloid compounds in mice, namely (12aS,13S)-6,7-dimethoxy-9,10,11,12,12a,13-hexahydro-9a-aza-cyclopenta[b]triphenylene-3,13-diol (known compound 1; refer to WO01/023384) and (12aS,13S)-3,6,7-trimethoxy-9,10,11,12,12a,13-hexahydro-9a-aza-cyclopenta[b]triphenylene-13-ol (known compound 2; refer to Planta Med., 2002, 68: 186-188), was simultaneously studied. To a control group, a physiological saline solution as a solvent, was administered.

[4] = SW480, read-out: NFκB inhibitory activity IC50
[5] = SW480, read-out: SV40 promoter inhibitory activity IC50
[6] = SW480/NRE-Luc cells, 50 ng/mL TNFα, luciferase expression
[7] = SW480/SV40-Luc cells, luciferase expression

Compound	IC50 (NFκB; [4])	IC50 (SV40 promoter; [5])	IC50 [1]	IC50 [2]	IC50 [3]	Mortality rate (mice; total dose 25 mg/kg)	also measured
COc1cc2c3c(c4ccc(O)cc4c2c(OC)c1OC)[C@@H](O)[C@H]1CCCN1C3.Cl [Compound 2, (12aR,13R)-5,6,7-trimethoxy-9,10,11,12,12a,13-hexahydro-9a-aza-cyclopenta[b]triphenylene-3,13-diol hydrochloride]	0.001 µg/mL	> 1 µg/mL	0.0036 µg/mL	0.0047 µg/mL	0.0025 µg/mL		
COc1cc2c3c(c4ccc(O)cc4c2cc1OC)C(N)[C@@H]1CCCN1C3.Cl (stereo partly drawn) [Compound 7, (S)-13-amino-6,7-dimethoxy-9,10,11,12,12a,13-hexahydro-9a-aza-cyclopenta[b]triphenylene-3-ol hydrochloride]	0.468 µg/mL	> 10 µg/mL	2.34 µg/mL	0.243 µg/mL	0.265 µg/mL		
Cl.Oc1ccc2c3c(c4ccccc4c2c1)CN1CCC[C@H]1[C@H]3O [Compound 3, (12aS,13S)-9,10,11,12,12a,13-hexahydro-9a-aza-cyclopenta[b]triphenylene-3,13-diol hydrochloride]	0.173 µg/mL	> 10 µg/mL	0.405 µg/mL	0.14 µg/mL	0.107 µg/mL	0/5	Mortality rate (mice; total dose 50 mg/kg): 0/5
COc1cc2c3c(c4ccc(O)cc4c2cc1OC)CN1CCC[C@H]1[C@H]3O.Cl [Compound 15, (12aS,13S)-2,3-dimethoxy-9,10,11,12,12a,13-hexahydro-9a-aza-cyclopenta[b]triphenylene-6,13-diol hydrochloride]	0.002 µg/mL	> 10 µg/mL	0.0042 µg/mL	0.0566 µg/mL	0.034 µg/mL	0/5	Mortality rate (mice; total dose 50 mg/kg): 0/5
CCOc1cc2c3c(c4ccc(O)cc4c2cc1OCC)[C@H](O)[C@@H]1CCCN1C3.Cl [Compound 10, (12aS,13S)-6,7-diethoxy-9,10,11,12,12a,13-hexahydro-9a-aza-cyclopenta[b]triphenylene-3,13-diol hydrochloride]	0.0041 µg/mL	> 0.1 µg/mL	0.0067 µg/mL	0.00047 µg/mL	0.00027 µg/mL	0/5	Mortality rate (mice; total dose 50 mg/kg): 0/5
CCOc1cc2c3c(c4ccc(O)cc4c2cc1OCC)C[C@@H]1CCCN1C3.Cl [Compound 14, (S)-6,7-diethoxy-9,10,11,12,12a,13-hexahydro-9a-aza-cyclopenta[b]triphenylene-3-ol hydrochloride]	0.0047 µg/mL	> 1 µg/mL	0.0154 µg/mL	0.0121 µg/mL	0.0021 µg/mL		
COc1ccc2c3c(c4cc(OC)c(OC)cc4c2c1)CN1CCC[C@H]1[C@H]3O [Known Compound 2, (12aS,13S)-3,6,7-trimethoxy-9,10,11,12,12a,13-hexahydro-9a-aza-cyclopenta[b]triphenylene-13-ol, reference compound]							Mortality rate (mice; total dose 25 mg/kg, 25 mg/kg): 2/5; Mortality rate (mice; total dose 25 mg/kg, listed as known compound 2, 25 mg/kg): some of the mice also died; Mortality rate (mice; total dose 50 mg/kg, 50 mg/kg): 5/5; Mortality rate (mice; total dose 50 mg/kg, listed as known compound 2, 50 mg/kg): all the mice died
COc1cc2c3c(c4ccc(O)cc4c2cc1OC)[C@H](O)[C@@H]1CCCN1C3 [Known compound 1, (12aS,13S)-6,7-dimethoxy-9,10,11,12,12a,13-hexahydro-9a-aza-cyclopenta[b]triphenylene-3,13-diol, reference compound]						0/5	Mortality rate (mice; total dose 50 mg/kg, 50 mg/kg): 5/5; Mortality rate (mice; total dose 50 mg/kg, listed as known compound 1, 50 mg/kg): all the mice died
COc1cc2c3c(c4ccc(O)cc4c2c(OC)c1OC)[C@H](O)[C@@H]1CCCN1C3.Cl [Compound 1, (12aS,13S)-5,6,7-trimethoxy-9,10,11,12,12a,13-hexahydro-9a-aza-cyclopenta[b]triphenylene-3,13-diol hydrochloride]	0.668 µg/mL	> 10 µg/mL	1.97 µg/mL	0.637 µg/mL	0.56 µg/mL	0/5	Mortality rate (mice; total dose 50 mg/kg): 0/5
COc1cc2c3c(c4cc(C)c(O)c(C)c4c2cc1OC)C[C@@H]1CCCN1C3.CS(=O)(=O)O [Compound 26, (S)-6,7-dimethoxy-2,4-dimethyl-9,10,11,12,12a,13-hexahydro-9a-aza-cyclopenta[b]triphenylene-3-ol methanesulfonate]							NFκB inhibitory activity IC50 (NFκB; [6]): 0.0597 µg/mL; SV40 promoter inhibitory activity IC50 (SV40 promoter; [7]): >10 µg/mL; SW480 proliferation inhibitory action IC50 [1]: 0.0321 µg/mL; HT-29 proliferation inhibitory action IC50 [2]: 0.05 µg/mL; A549 proliferation inhibitory action IC50 [3]: 0.1002 µg/mL
(S)-2-chloro-6,7-dimethoxy-9,10,11,12,12a,13-hexahydro-9a-aza-cyclopenta[b]triphenylene-3-ol methanesulfonate [Compound 21]							NFκB inhibitory activity IC50 (NFκB; [6]): 0.0054 µg/mL; SV40 promoter inhibitory activity IC50 (SV40 promoter; [7]): >1 µg/mL; SW480 proliferation inhibitory action IC50 [1]: 0.0067 µg/mL; HT-29 proliferation inhibitory action IC50 [2]: 0.0068 µg/mL; A549 proliferation inhibitory action IC50 [3]: 0.008 µg/mL
COc1cc2c3c(c4ccc(O)c(Cl)c4c2cc1OC)C[C@@H]1CCCN1C3.CS(=O)(=O)O [Compound 22, (S)-4-chloro-6,7-dimethoxy-9,10,11,12,12a,13-hexahydro-9a-aza-cyclopenta[b]triphenylene-3-ol methanesulfonate]							NFκB inhibitory activity IC50 (NFκB; [6]): 0.00041 µg/mL; SV40 promoter inhibitory activity IC50 (SV40 promoter; [7]): >0.1 µg/mL; SW480 proliferation inhibitory action IC50 [1]: 0.0006 µg/mL; HT-29 proliferation inhibitory action IC50 [2]: 0.0041 µg/mL; A549 proliferation inhibitory action IC50 [3]: 0.00071 µg/mL
(S)-2-fluoro-6,7-dimethoxy-9,10,11,12,12a,13-hexahydro-9a-aza-cyclopenta[b]triphenylene-3-ol methanesulfonate [Compound 25]							NFκB inhibitory activity IC50 (NFκB; [6]): 0.0016 µg/mL; SV40 promoter inhibitory activity IC50 (SV40 promoter; [7]): >1 µg/mL; SW480 proliferation inhibitory action IC50 [1]: 0.0031 µg/mL; HT-29 proliferation inhibitory action IC50 [2]: 0.007 µg/mL; A549 proliferation inhibitory action IC50 [3]: 0.0026 µg/mL
S=C(S)N1CCCC1 [PDTC, pyrrolidine dithiocarbamate, reference compound]							IC50 (NFκB; SW480/NRE-Luc cells, 50 ng/mL TNFα, luciferase expression, read-out: NFκB inhibitory activity IC50): 2.4 µg/mL (≈ 16.3 µM); IC50 (SV40 promoter; SW480/SV40-Luc cells, luciferase expression, read-out: SV40 promoter inhibitory activity IC50): > 10 µg/mL
Cl.Oc1ccc2c3c(c4ccc(F)cc4c2c1)CN1CCC[C@H]1[C@H]3O [Compound 4, (12aS,13S)-6-fluoro-9,10,11,12,12a,13-hexahydro-9a-aza-cyclopenta[b]triphenylene-3,13-diol hydrochloride]	0.286 µg/mL	> 10 µg/mL	0.503 µg/mL	0.218 µg/mL	0.152 µg/mL		
